Experimental data reported in ChEMBL document CHEMBL4354883, “Design, Synthesis, and Biological Evaluation of HSP90 Inhibitor-SN38 Conjugates for Targeted Drug Accumulation” (J Med Chem, 2020).
Active and inactive are the calls of the source. The rule behind the calls is not given here.

Experiments:
HCT-116 [1] = assay: Downregulation of TOP1 expression in human HCT116 cells after 24 hrs by Western blot analysis; format: functional, cell-based
A549 [2] = assay: Antiproliferative activity against human A549 cells assessed as reduction in cell viability after 72 hrs by SRB assay; format: functional, cell-based; conditions: A549, 72 h
[3] = Drug uptake in human A549 cells assessed as maximum emission peaks at 430 nm at 5 uM by fluorescence emission spectral analysis; format: ADME, cell-based; conditions: a549, 5 µM
Mus musculus [4] = assay: In vivo inhibition of topoisomerase 1 in mouse xenografted with human Capan1 cells assessed as increase in phosphorylated KAP1 expression at 36 mg/kg, iv for every 2 days measured at 2 hrs post last dose by Western blot analysis; format: functional, organism-based
[5] = Prodrug release in mouse plasma xenografted with human HCT116 cells assessed as increase in 7-ethyl-10-hydroxycamptothecin level at 15 mg/kg, iv administered as single dose and measured after 30 mins to 72 hrs by LC-MS/MS analysis; format: ADME, organism-based; conditions: in vivo
Mus musculus [6] = assay: In vivo inhibition of HSP90 in mouse xenografted with human Capan1 cells assessed as decrease in AKT protein expression at 36 mg/kg, iv for every 2 days measured at 2 hrs post last dose by Western blot analysis; format: functional, organism-based
[7] = Drug uptake in human A549 cells assessed as blue shift in absorption spectrum at 5 uM by UV-visible absorption spectral analysis; format: ADME, cell-based; conditions: a549, 5 µM
Mus musculus [8] = assay: Down regulation of topoisomerase 1 expression in mouse xenografted with human Capan1 cells at 36 mg/kg, iv for every 2 days measured at 2 hrs post last dose by Western blot analysis; format: functional, organism-based
[9] = Prodrug release in tumor of mouse xenografted with human Capan1 cells assessed as increase in 7-ethyl-10-hydroxycamptothecin level at 36 mg/kg, iv after 24 hrs by LC-MS/MS analysis; format: ADME, organism-based, Neoplasm; conditions: in vivo
[10] = Prodrug release in tumor of mouse xenografted with human HCT116 cells assessed as increase in 7-ethyl-10-hydroxycamptothecin level at 15 mg/kg, iv administered as single dose by LC-MS/MS analysis; format: ADME, organism-based, Neoplasm; conditions: in vivo
[11] = Drug uptake in human A549 cells assessed as blue fluorescence at 5 uM after 12 hrs by confocal laser scanning microscopic analysis; format: ADME, cell-based; conditions: a549, 12 h
L02 = assay: Cytotoxicity agains human HL7702 cells assessed as reduction in cell viability after 72 hrs by SRB assay; format: cell-based; conditions: L02, 72 h
HCT-116 [12] = assay: Antiproliferative activity against human HCT116 cells assessed as reduction in cell viability after 72 hrs by SRB assay; format: functional, cell-based; conditions: HCT-116, 72 h
CAPAN-1 = assay: Antiproliferative activity against human Capan1 cells assessed as reduction in cell viability after 72 hrs by SRB assay; format: functional, cell-based; conditions: CAPAN-1, 72 h
A549 [13] = assay: Downregulation of TOP1 expression in human A549 cells after 24 hrs by Western blot analysis; format: functional, cell-based
Mus musculus [14] = assay: In vivo inhibition of HSP90 in mouse xenografted with human Capan1 cells assessed as increase in HSP70 protein expression at 36 mg/kg, iv for every 2 days measured at 2 hrs post last dose by Western blot analysis; format: functional, organism-based
MIA PaCa-2 = assay: Antiproliferative activity against human MIAPaCa2 cells assessed as reduction in cell viability after 72 hrs by SRB assay; format: functional, cell-based; conditions: MIA PaCa-2, 72 h

## CCc1c2c(nc3ccc(OC(=O)N4CCC(N5CCCCC5)CC4)cc13)-c1cc3c(c(=O)n1C2)COC(=O)[C@]3(O)CC [IRINOTECAN]
HCT-116 [1]
  inhibition: Active
A549 [2]
  IC50: 1.56 µM
[3]
  Drug uptake: Active
Mus musculus [4]
  inhibition: Active
[5]
  Drug metabolism: Metabolite_Detected
Mus musculus [6]
  inhibition: inactive
[7]
  Drug uptake: Active
Mus musculus [8]
  inhibition: Active
[9]
  Drug metabolism: Metabolite_Notdetected
[10]
  Drug metabolism: Metabolite_Detected
[11]
  Drug uptake: Not Active
L02
  IC50: 1.3 µM
HCT-116 [12]
  IC50: 0.498 µM
CAPAN-1
  IC50: 1.12 µM
A549 [13]
  TOP1 downregulation: Active
Mus musculus [14]
  inhibition: inactive
MIA PaCa-2
  IC50: 1.33 µM
